The text below walks through data of patent US9340577B2, “HLA binding motifs and peptides and their uses” (priority 1992, dated 2016).

No end group written: not given here. A value given as a limit tells only on which side of the number the result lay.

Targets include HLA-A*0201 (HLA-A2.1) (Homo sapiens, UniProt P04439, D140Y/D185E/D98H/E176V/E277Q/G131W/G231S/I119V/I121R/I166T/I218V/L300P/L318F/N151K/N90K/P208A/P217A/Q86G/Q94H/R138H/R169H/T345S); A*0202 (Homo sapiens, UniProt P04439, D140Y/D185E/D98H/E176V/E277Q/G131W/G231S/I119L/I121R/I166T/I218V/L180W/L300P/L318F/N151K/N90K/P208A/P217A/Q67R/Q86G/Q94H/R138H/R169H/T345S); A*0203 (Homo sapiens, UniProt P04439, A173T/D140Y/D185E/D98H/E277Q/G131W/G231S/I119V/I121R/I166T/I218V/L180W/L300P/L318F/N151K/N90K/P208A/P217A/Q86G/Q94H/R138H/R169H/T345S); A*0206 (Homo sapiens, UniProt P04439, D140Y/D185E/D98H/E176V/E277Q/F33Y/G131W/G231S/I119V/I121R/I166T/I218V/L300P/L318F/N151K/N90K/P208A/P217A/Q86G/Q94H/R138H/R169H/T345S); A*6802 (Homo sapiens, UniProt P04439, A269V/D140Y/D185E/E176V/E277Q/E87N/F33Y/G231S/I121R/I166T/I218V/L180W/L300P/L318F/N151K/P208A/P217A/Q86R/R138H/R169H/S129P/T345S/V36M).

What all share (assay): biochemical
Holding throughout (type): binding

As usually defined, the IC50 is the concentration at which inhibition is half-maximal. High values mean a need for much substance, low ones inhibition by little substance. On to LIQPFILYA [Peptide 1578.07], for which the IC50 is 124 nM at HLA-A*0201 (HLA-A2.1); 70 nM against A*0202; 46 nM on A*0203; 71 nM against A*0206; 8630 nM against A*6802.
For TLQDVSLEV [Peptide 1578.45], in that order: 701 nM, 18 nM, 26 nM, 2070 nM and 2680 nM.
The matching figures for RTLTLLSVV [Peptide 9013.0075]: 505 nM, 6020 nM, 300 nM, 88 nM and greater than 20000 nM.
The matching figures for EVFIPNITV [Peptide 9013.0062]: greater than 20000 nM, greater than 20000 nM, greater than 20000 nM, 4260 nM and 4 nM.
With RILQQLLFV [Peptide 1525.09], the IC50 against HLA-A*0201 (HLA-A2.1) was found to be 28 nM; on A*0202, 489 nM; against A*0203, 60 nM; at A*0206 it was 18 nM; on A*6802 it was 17900 nM.
Consider ALFNVQEGV [Peptide 1578.41], for which the IC50 at HLA-A*0201 (HLA-A2.1) amounted to 64 nM; on A*0202, 2 nM; against A*0203, 5.2 nM; against A*0206, 45 nM; against A*6802 it was 914 nM.
Consider NLNLSCHAV [Peptide 9013.0054], for which the IC50 against HLA-A*0201 (HLA-A2.1) came to 633 nM; at A*0202 it was 15 nM; against A*0203, 39 nM; at A*0206 it was 7130 nM; against A*6802 it was 2200 nM.
For `CSCC[C@H](NC(=O)[C@H](C)N)C(=O)N[C@@H](CS)C(=O)N[C@@H](CCCNC(=N)N)C(=O)N[C@@H](Cc1c[nH]c2ccccc12)C(=O)NCC(=O)N[C@@H](CC(C)C)C(=O)N[C@@H](CC(C)C)C(=O)N[C@H](C(=O)O)C(C)C` [Peptide 1334.07], in that order: 51 nM, 9280 nM, 1570 nM, 2110 nM and 3900 nM.
The matching figures for RILQQLLFA [Peptide 1525.14]: 123 nM, 68 nM, 68 nM, 20 nM and greater than 20000 nM.
In the case of RMLQQLLFV [Peptide 1525.16], the IC50 on HLA-A*0201 (HLA-A2.1) was 21 nM; against A*0202, 21 nM; at A*0203, 6.8 nM; against A*0206, 14 nM; at A*6802, greater than 20000 nM.
Turning to QQIEFVSFL [Peptide 1578.16], the IC50 on HLA-A*0201 (HLA-A2.1) stood at 19 nM; on A*0202, 3.3 nM; at A*0203 it was 14 nM; at A*0206, 49 nM; on A*6802 it was 44 nM.
For RVLQQLLFV [Peptide 1545.05], in that order: 10 nM, 1010 nM, 29 nM, 6.4 nM and greater than 20000 nM.
The matching figures for FLSYFKLFL [Peptide 1578.37]: 30 nM, 2.1 nM, 8.6 nM, 45 nM and 4750 nM.
For CLAHNSDTGL [Peptide 9013.0191], the half-inhibitory concentration (IC50) at HLA-A*0201 (HLA-A2.1) is 13500 nM; against A*0202, 13 nM; against A*0203, 39 nM; against A*0206, greater than 20000 nM; against A*6802 it was greater than 20000 nM.
Take HLQVLFIAKI [Peptide 9013.0244]: the IC50 against HLA-A*0201 (HLA-A2.1) was 5930 nM; on A*0202, 789 nM; at A*0203, 29 nM; at A*0206 it was 121 nM; against A*6802, greater than 20000 nM.
As to TLQATPGPA [Peptide 9013.0028], the half-maximal inhibitory concentration (IC50) was 19400 nM on HLA-A*0201 (HLA-A2.1); 1980 nM against A*0202; 29 nM against A*0203; greater than 20000 nM at A*0206; greater than 20000 nM against A*6802.
As for QLSNGNRTLV [Peptide 9013.0229], the half-maximal inhibitory concentration (IC50) on HLA-A*0201 (HLA-A2.1) is greater than 20000 nM; against A*0202, 66 nM; against A*0203, 146 nM; against A*0206, greater than 20000 nM; on A*6802, greater than 20000 nM.
On to LLTFWNPPTV [Peptide 9013.0120], for which the IC50 at HLA-A*0201 (HLA-A2.1) stood at 170 nM; on A*0202, 10 nM; against A*0203, 3.2 nM; against A*0206, 1000 nM; on A*6802 it was 607 nM.
The matching figures for KLMSQLLNI [Peptide 1578.29]: 35 nM, 1.6 nM, 12 nM, 56 nM and greater than 20000 nM.
For RLLTLLSVT [Peptide 9013.0076], in that order: 1830 nM, 4610 nM, 1600 nM, 482 nM and greater than 20000 nM.
SLNRSDPVTL [Peptide 9013.0233]: the concentration for half-maximal inhibition (IC50) on HLA-A*0201 (HLA-A2.1) was 16200 nM; on A*0202, 59 nM; at A*0203, 80 nM; at A*0206, greater than 20000 nM; against A*6802 it was greater than 20000 nM.
For the compound IQNDTGFYV [Peptide 9013.0035], the IC50 against HLA-A*0201 (HLA-A2.1) worked out at 148 nM; on A*0202 it was 16 nM; against A*0203, 37 nM; at A*0206, 32 nM; on A*6802 it was 4500 nM.
For GLQQATPGPA [Peptide 9013.0143], in that order: 4870 nM, 220 nM, 3.9 nM, greater than 20000 nM and greater than 20000 nM.
The matching figures for FQGSVISFV [Peptide 1578.38]: 15 nM, 1.8 nM, 1.8 nM, 13 nM and 564 nM.
The matching figures for ALAFTCEPET [Peptide 9013.0156]: greater than 20000 nM, 206 nM, 279 nM, 7960 nM and greater than 20000 nM.
As for VLEGKEVLLLV [Peptide 9013.0273], the IC50 against HLA-A*0201 (HLA-A2.1) is 1840 nM; against A*0202, 32 nM; at A*0203 it was 272 nM; against A*0206, 4610 nM; against A*6802 it was greater than 20000 nM.
For RTLQQLLFI [Peptide 1525.11], in that order: 152 nM, greater than 20000 nM, 1660 nM, 89 nM and greater than 20000 nM.
The matching figures for SLYTHLQCL [Peptide 1578.20]: 224 nM, 2.6 nM, 11 nM, 540 nM and 8470 nM.
For SLQDSQFEL [Peptide 1578.35], in that order: 141 nM, 1.4 nM, 165 nM, 160 nM and 8850 nM.
On to RLQLSNGNRTL [Peptide 9013.0286], for which the IC50 against HLA-A*0201 (HLA-A2.1) is greater than 20000 nM; against A*0202, 443 nM; at A*0203 it was 2840 nM; on A*0206, greater than 20000 nM; on A*6802, greater than 20000 nM.
